Structures are written as SMILES.

Holding throughout (type): cell-based
One experiment deals with MDA-MB-231 cells. Nature of the experiment: PARP cleavage assay (Western blotting), MDA-MB-231. The note with it: 6 hours. The source says: Compound 1a had no effect under the same conditions (FIG. 1A). […] Compound 1a, 28a, 47a, 48a, 73a, 39a, 70a, 103a, 89a and 88a had no effect under the same conditions (FIG. 3B-C).
The test system of experiment [1] is mTOR markers p-S6 and p-4EBP1. Nature of the experiment: mTOR inhibition: expression of mTOR markers. The note with it: MDA-MB-231 cells, 1 μM, 6 hours.
A further experiment concerns HCT116 cancer cells. Nature of the experiment: Cell viability (MTT) assay, HCT116. The settings on record: Homo sapiens, HCT-116; inhibiting the growth of HCT116 cancer cells, cell viability assay (Table 5). As for the experimental part:
(§1) Cell viability was analyzed by using a colorimetric 3-(4,5-dimethylthiazol-[…]2-yl)-2,5-diphenyletetrazolium Bromide (MTT) assay that determines mitochondrial dehydrogenase activities in the living cells with a colorimetric method. Cells treated with test compounds were incubated with MTT and their effect on the viability of the cells was assayed by the ability of treated cells to reduce the yellow tetrazolium dye MTT to its insoluble formazan, which has a purple color. […]

Another experiment has as its system MDA-MB-231 cancer cells. Nature of the experiment: Cell viability (MTT) assay, MDA-MB-231. The note with it: Homo sapiens; inhibiting the growth of MDA-MB-231 cancer cells, cell viability assay (Table 6). As to the method: as §1

For `Fc1ccc2[nH]cc([C+](c3ccc(C(F)(F)F)cc3)c3c[nH]c4ccc(F)cc34)c2c1` [Compound 10, Bis(5-fluoro-1H-indol-3-yl)(4-(trifluoromethyl)phenyl)methylium methanesulfonate], the PARP cleavage result in the experiment on MDA-MB-231 cells (1 μM) was “effectively induce PARP cleavage”. Further, the “expression levels of mTOR markers p-S6 and p-4EBP1” value in experiment [1] was “reduced the expression levels”.
With `Fc1ccc2[nH]cc([C+](c3ccc(C(F)(F)F)cc3)c3c[nH]c4ccccc34)c2c1.[Cl-]` [Compound 73, (5-Fluoro-1H-indol-3-yl)(1H-indol-3-yl)(4-(trifluoromethyl)phenyl)methylium chloride], the half-maximal inhibitory concentration (IC50) in the experiment on HCT116 cancer cells and in the experiment on MDA-MB-231 cancer cells was less than 500 nM each time. For the same compound, the PARP cleavage result is recorded as “effectively induced PARP cleavage” with MDA-MB-231 cells (0.5 μM) and “effectively induce PARP cleavage” in the experiment with MDA-MB-231 cells (1 μM). Further, the “expression levels of mTOR markers p-S6 and p-4EBP1” value in experiment [1] is given as “reduced the expression levels”.
For `Cc1ccc2c([C+](c3ccc(C(F)(F)F)cc3)c3c[nH]c4ccccc34)c[nH]c2c1.[Cl-]` [Compound 54, (6-Methyl-1H-indol-3-yl)(1H-indol-3-yl)(4-(trifluoromethyl)phenyl)methylium chloride], the PARP cleavage entry with MDA-MB-231 cells (1 μM) was “effectively induce PARP cleavage”. Moreover, the “expression levels of mTOR markers p-S6 and p-4EBP1” value in experiment [1] was “reduced the expression levels”.
Take `Cc1ccc2[nH]cc([C+](c3ccc(C(F)(F)F)cc3)c3c[nH]c4ccc(C)cc34)c2c1` [Compound 15, Bis(5-methyl-1H-indol-3-yl)(4-(trifluoromethyl)phenyl)methylium methanesulfonate]: the PARP cleavage entry in the experiment with MDA-MB-231 cells (1 μM) was “effectively induce PARP cleavage”. Moreover, the “expression levels of mTOR markers p-S6 and p-4EBP1” value in experiment [1] is reported as “reduced the expression levels”.
`Fc1cc([C+](c2c[nH]c3ccccc23)c2c[nH]c3ccccc23)ccc1C(F)(F)F.[Cl-]` [Compound 103, (3-Fluoro-4-(trifluoromethyl)phenyl)di(1H-indol-3-yl)methylium chloride]: the half-inhibitory concentration (IC50) in the experiment on HCT116 cancer cells and in the experiment on MDA-MB-231 cancer cells was less than 500 nM in each case. In addition, in the experiment on MDA-MB-231 cells (0.5 μM), the PARP cleavage result is on record as “effectively induced PARP cleavage”.
Take `Cn1cc([C+](c2ccc(C(F)(F)F)cc2)c2c[nH]c3ccccc23)c2ccc(F)cc21.[Cl-]` [Compound 88, (6-Fluoro-1-methyl-1H-indol-3-yl)(1H-indol-3-yl)(4-(trifluoromethyl)phenyl)-methylium chloride]: the half-inhibitory concentration (IC50) in the experiment on HCT116 cancer cells and in the experiment with MDA-MB-231 cancer cells was less than 500 nM throughout. In addition, the PARP cleavage entry with MDA-MB-231 cells (0.5 μM) is on record as “effectively induced PARP cleavage”.
On to `CCCCn1cc([C+](c2ccc(C(F)(F)F)cc2)c2c[nH]c3ccccc23)c2ccccc21.[Cl-]` [Compound 49, (1-Butyl-1H-indol-3-yl)(1H-indol-3-yl)(4-(trifluoromethyl)phenyl)methylium chloride], for which the PARP cleavage result in the experiment on MDA-MB-231 cells (1 μM) is listed as “effectively induce PARP cleavage”. For the same compound, the “expression levels of mTOR markers p-S6 and p-4EBP1” value in experiment [1] is reported as “reduced the expression levels”.
For `Fc1ccc2c([C+](c3ccc(C(F)(F)F)cc3)c3c[nH]c4ccccc34)c[nH]c2c1.[Cl-]` [Compound 70, (6-Fluoro-1H-indol-3-yl)(1H-indol-3-yl)(4-(trifluoromethyl)phenyl)methylium chloride], the IC50 in the experiment with HCT116 cancer cells and in the experiment with MDA-MB-231 cancer cells was less than 500 nM each time. Also, the PARP cleavage entry in the experiment on MDA-MB-231 cells (0.5 μM) is reported as “effectively induced PARP cleavage”.
Take `Fc1cccc2[nH]cc([C+](c3ccc(C(F)(F)F)cc3)c3c[nH]c4ccccc34)c12.[Cl-]` [Compound 72, (4-Fluoro-1H-indol-3-yl)(1H-indol-3-yl)(4-(trifluoromethyl)phenyl)methylium chloride]: the PARP cleavage entry in the experiment on MDA-MB-231 cells (1 μM) is “effectively induce PARP cleavage”. The “expression levels of mTOR markers p-S6 and p-4EBP1” value in experiment [1] is “reduced the expression levels”.
Take `Fc1cccc2c([C+](c3ccc(C(F)(F)F)cc3)c3c[nH]c4c(F)cccc34)c[nH]c12.[Cl-]` [Compound 62, Bis(7-fluoro-1H-indol-3-yl)(4-(trifluoromethyl)phenyl)methylium chloride]: the PARP cleavage result with MDA-MB-231 cells (1 μM) was “effectively induce PARP cleavage”. The “expression levels of mTOR markers p-S6 and p-4EBP1” value in experiment [1] is “reduced the expression levels”.
The corresponding values for `Cn1cc([C+](c2ccc(C(F)(F)F)cc2)c2cn(C)c3ccccc23)c2ccccc21` [Compound 11, Bis(1-methyl-1H-indol-3-yl)(4-(trifluoromethyl)phenyl)methylium methanesulfonate] are “effectively induce PARP cleavage” and “reduced the expression levels”.
On the same counts, the results for `Cc1cccc2c([C+](c3ccc(C(F)(F)F)cc3)c3c[nH]c4ccccc34)c[nH]c12.[Cl-]` [Compound 55, (7-Methyl-1H-indol-3-yl)(1H-indol-3-yl)(4-(trifluoromethyl)phenyl)methylium chloride] are “effectively induce PARP cleavage” and “reduced the expression levels”.
As for `Cn1cc([C+](c2ccc(C(F)(F)F)cc2)c2c[nH]c3c(F)cccc23)c2ccccc21.[Cl-]` [Compound 89, (7-Fluoro-1H-indol-3-yl)(1-methyl-1H-indol-3-yl)(4-(trifluoromethyl)phenyl)-methylium chloride], the IC50 with HCT116 cancer cells and with MDA-MB-231 cancer cells was less than 500 nM each time. The PARP cleavage entry with MDA-MB-231 cells (0.5 μM) is on record as “effectively induced PARP cleavage”.
Take `CCn1cc([C+](c2ccc(C(F)(F)F)cc2)c2c[nH]c3ccccc23)c2ccccc21.[Cl-]` [Compound 47, (1-Ethyl-1H-indol-3-yl)(1H-indol-3-yl)(4-(trifluoromethyl)phenyl)methylium chloride]: the 50% inhibitory concentration (IC50) with HCT116 cancer cells and with MDA-MB-231 cancer cells was less than 500 nM in each case. Besides, in the experiment on MDA-MB-231 cells (0.5 μM), the PARP cleavage entry was “effectively induced PARP cleavage”.
Regarding `FC(F)(F)c1ccc([C+](c2cn(-c3ccccc3)c3ccccc23)c2cn(-c3ccccc3)c3ccccc23)cc1.[Cl-]` [Compound 74, Bis(1-phenyl-1H-indol-3-yl)(4-(trifluoromethyl)phenyl)methylium chloride], the PARP cleavage entry in the experiment on MDA-MB-231 cells (1 μM) was “effectively induce PARP cleavage”. Besides, the “expression levels of mTOR markers p-S6 and p-4EBP1” value in experiment [1] is “reduced the expression levels”.
As to `FC(F)(F)c1ccc([C+](c2c[nH]c3cc(Cl)ccc23)c2c[nH]c3cc(Cl)ccc23)cc1.[Cl-]` [Compound 67, Bis(6-chloro-1H-indol-3-yl)(4-(trifluoromethyl)phenyl)methylium chloride], in the experiment with MDA-MB-231 cells (1 μM), the PARP cleavage entry is reported as “effectively induce PARP cleavage”. Further, the “expression levels of mTOR markers p-S6 and p-4EBP1” value in experiment [1] is “reduced the expression levels”.
`Cl.Fc1ccc2c([C+](c3ccc(C(F)(F)F)cc3)c3c[nH]c4cc(F)ccc34)c[nH]c2c1` [Compound 22, Bis(6-fluoro-1H-indol-3-yl)(4-(trifluoromethyl)phenyl)methylium chloride]: the PARP cleavage result in the experiment on MDA-MB-231 cells (1 μM) is reported as “effectively induce PARP cleavage”. Also, the “expression levels of mTOR markers p-S6 and p-4EBP1” value in experiment [1] is “reduced the expression levels”.
The corresponding values for `Oc1ccc2[nH]cc([C+](c3ccc(C(F)(F)F)cc3)c3c[nH]c4ccc(O)cc34)c2c1.[Cl-]` [Compound 46, Bis(5-hydroxy-1H-indol-3-yl)(4-(trifluoromethyl)phenyl)methylium chloride] are “effectively induce PARP cleavage” and “reduced the expression levels”.
Take `FC(F)(F)c1ccc([C+](c2c[nH]c3cc(Cl)ccc23)c2c[nH]c3cc(Cl)ccc23)cc1` [Compound 24, Bis(6-chloro-1H-indol-3-yl)(4-(trifluoromethyl)phenyl)methylium methanesulfonate]: in the experiment with MDA-MB-231 cells (1 μM), the PARP cleavage entry is listed as “effectively induce PARP cleavage”. Also, the “expression levels of mTOR markers p-S6 and p-4EBP1” value in experiment [1] is reported as “reduced the expression levels”.
Regarding `Fc1cccc2[nH]cc([C+](c3ccc(C(F)(F)F)cc3)c3c[nH]c4cccc(F)c34)c12.[Cl-]` [Compound 43, Bis(4-fluoro-1H-indol-3-yl)(4-(trifluoromethyl)phenyl)methylium chloride], in the experiment with MDA-MB-231 cells (1 μM), the PARP cleavage result is reported as “effectively induce PARP cleavage”. Also, the “expression levels of mTOR markers p-S6 and p-4EBP1” value in experiment [1] was “reduced the expression levels”.
On to `Fc1ccc2c([C+](c3ccc(C(F)(F)F)cc3)c3c[nH]c4cc(F)ccc34)c[nH]c2c1` [Compound 21, Bis(6-fluoro-1H-indol-3-yl)(4-(trifluoromethyl)phenyl)methylium methanesulfonate], for which, in the experiment on MDA-MB-231 cells (1 μM), the PARP cleavage entry is recorded as “effectively induce PARP cleavage”. Moreover, the “expression levels of mTOR markers p-S6 and p-4EBP1” value in experiment [1] was “reduced the expression levels”.
On to `Cc1ccc2c([C+](c3ccc(C(F)(F)F)cc3)c3c[nH]c4cc(C)ccc34)c[nH]c2c1` [Compound 18, Bis(6-methyl-1H-indol-3-yl)(4-(trifluoromethyl)phenyl)methylium chloride], for which, in the experiment on MDA-MB-231 cells (1 μM), the PARP cleavage result is on record as “effectively induce PARP cleavage”. Besides, in experiment [1], the “expression levels of mTOR markers p-S6 and p-4EBP1” value is listed as “reduced the expression levels”.
On the same counts, the results for `Cc1ccc2[nH]cc([C+](c3ccc(C(F)(F)F)cc3)c3c[nH]c4ccccc34)c2c1.[Cl-]` [Compound 57, (5-Methyl-1H-indol-3-yl)(1H-indol-3-yl)(4-(trifluoromethyl)phenyl)methylium chloride] are “effectively induce PARP cleavage” and “reduced the expression levels”.

(Values after US20210024499A1, “OXIDIZED BIS(3-INDOLYL)METHANES AND USES THEREOF” (Sanford Burnam Prebys Medical Discovery Institute, priority 2018, published 2021).)
